Test results reported in patent US9365584B2, “Thieno [2,3-B] pyridinedione activators of AMPK and therapeutic uses thereof” (Poxel, priority 2009, dated 2016).

tested on: AMPK; experiment: AMPK enzyme activity assay (Delfia technology, AMARA peptide substrate); assay type: biochemical; settings: compound at 30 μM vs AMP at 200 μM
Procedure: The following biological test allows the determination of the efficacy of compounds of formula (1) onto AMPK protein.
AMPK enzyme activities were assayed by using a Delfia technology. AMPK enzyme activities were carried out in microtiter plates in the presence of a synthetic peptide substrate (AMARAASAAALARRR, the “AMARA” peptide) and activators in serial dilutions. Reactions were initiated by the addition of AMPK. Enzyme activity was assayed by using an anti-phosphoserine antibody to measure the quantity of phosphate incorporated into the AMARAA.
No: Number of the molecule
Activity: Ratio between the % of control (basal activity) of compound of formula (1) at 30 μM and the % of control (basal activity) of AMP (natural substrate) at 200 μM.

For Cc1ccc(-c2c(Cl)sc3c2C(=O)C(F)(c2ccccc2)C(=O)N3)cc1 (stereo not drawn) [No 80, 2-chloro-5-fluoro-5-phenyl-3-(p-tolyl)-7H-thieno[2,3-b]pyridine-4,6-dione], which “Activity: Ratio between the % of control (basal activity) of compound of formula (1) at 30 μM and the % of control (basal activity) of AMP (natural substrate) at 200 μM” value (shortened to “Activity: Ratio between the % of control”) is on record?
The value was “C (C≧75%)”.

Which “Activity: Ratio between the % of control” value does the source give for O=C1Nc2sc(Cl)c(-c3ccccc3)c2C(=O)C1(F)c1cccc(C(F)(F)F)c1 (stereo not drawn) [No 95, 2-chloro-5-fluoro-3-phenyl-5-[3-(trifluoro-methyl)phenyl]-7H-thieno[2,3-b]pyridine-4,6-dione] here?
The value was “B (50%≦B<75%)”.

Which “Activity: Ratio between the % of control” value does the source give for O=C1Nc2sc(F)c(-c3ccccc3)c2C(=O)C1(F)c1cccc(C(F)(F)F)c1 (stereo not drawn) [No 132, 2,5-difluoro-3-phenyl-5-[3-(trifluoromethyl)phenyl]-7H-thieno[2,3-b]pyridine-4,6-dione] here?
The value was “A (0%<A<50%)”.

With CC1(c2ccc(F)cc2)C(=O)Nc2sc(Cl)c(-c3ccccc3)c2C1=O (stereo not drawn) [No 32, 2-chloro-5-(4-fluorophenyl)-5-methyl-3-phenyl-7H-thieno[2,3-b]pyridine-4,6-dione] as the molecule, how does the “Activity: Ratio between the % of control” value read?
The value was “A (0%<A<50%)”.

CCc1ccc(-c2csc3c2C(=O)C(C)(c2ccccc2)C(=O)N3)c(OC)c1 (stereo not drawn) [No 16, 3-(4-ethyl-2-methoxy-phenyl)-5-methyl-5-phenyl-7H-thieno[2,3-b]pyridine-4,6-dione] was tested. Which “Activity: Ratio between the % of control” value did it give?
The value was “A (0%<A<50%)”.

For COc1ccc(-c2c(Cl)sc3c2C(=O)C(C)(c2cccc(F)c2)C(=O)N3)cc1 (stereo not drawn) [No 85, 2-chloro-5-(3-fluorophenyl)-3-(4-methoxyphenyl)-5-methyl-7H-thieno[2,3-b]pyridine-4,6-dione], which “Activity: Ratio between the % of control” value is on record?
The value was “A (0%<A<50%)”.

Which “Activity: Ratio between the % of control” value does the source give for Cc1ccc(-c2c(Cl)sc3c2C(=O)C(C)(c2cccc(C)c2)C(=O)N3)cc1 (stereo not drawn) [No 144, 2-chloro-5-methyl-5-(m-tolyl)-3-(p-tolyl)-7H-thieno[2,3-b]pyridine-4,6-dione] here?
The value was “A (0%<A<50%)”.

Cc1ccc(C2(C)C(=O)Nc3sc(Cl)c(-c4cccc(C)c4)c3C2=O)cc1 (stereo not drawn) [No 117, 2-chloro-5-methyl-3-(m-tolyl)-5-(p-tolyl)-7H-thieno[2,3-b]pyridine-4,6-dione] was tested. Which “Activity: Ratio between the % of control” value did it give?
Its value is “A (0%<A<50%)”.

With COc1ccc(C2(F)C(=O)Nc3sc(F)c(-c4ccccc4)c3C2=O)cc1 (stereo not drawn) [No 168, 2,5-difluoro-5-(4-methoxyphenyl)-3-phenyl-7H-thieno[2,3-b]pyridine-4,6-dione] as the molecule, how does the “Activity: Ratio between the % of control” value read?
The value was “A (0%<A<50%)”.

How did the “Activity: Ratio between the % of control” value turn out when CS(=O)(=O)c1ccc(C2(F)C(=O)Nc3sc(Cl)c(-c4ccc(F)cc4O)c3C2=O)cc1 (stereo not drawn) [No 218, 2-chloro-5-fluoro-3-(4-fluoro-2-hydroxy-phenyl)-5-(4-methylsulfonylphenyl)-7H-thieno[2,3-b]pyridine-4,6-dione] was run?
Its value is “C (C≧75%)”.

For COc1cccc(-c2c(Cl)sc3c2C(=O)C(C)(c2cccc(F)c2)C(=O)N3)c1 (stereo not drawn) [No 62, 2-chloro-5-(3-fluorophenyl)-3-(3-methoxyphenyl)-5-methyl-7H-thieno[2,3-b]pyridine-4,6-dione], which “Activity: Ratio between the % of control” value is on record?
The value was “C (C≧75%)”.

With COc1cc(Br)ccc1-c1c(F)sc2c1C(=O)C(F)(c1ccccc1)C(=O)N2 (stereo not drawn) [No 128, 3-(4-bromo-2-methoxy-phenyl)-2,5-difluoro-5-phenyl-7H-thieno[2,3-b]pyridine-4,6-dione] as the molecule, how does the “Activity: Ratio between the % of control” value read?
Its value is “A (0%<A<50%)”.
